Test results as given in patent publication US11247972B2, “Compositions and methods for treating toxoplasmosis, cryptosporidiosis, and other apicomplexan protozoan related diseases” (University of Washington through its Center for …, priority 2010, dated 2022).
pEC50: −log10 of the molar value. “Also recorded” adds a separate entry of the source.

Tests used:
[1] = target: TgCDPK1 (Toxoplasma gondii, UniProt Q9BJF5); format: biochemical
[2] = target: CpCDPK1 (Cryptosporidium parvum (strain Iowa II), UniProt A3FQ16); format: biochemical
[3] = test system: C. parvum; assay: C. parvum infection of HCT-8 cells (rRNA reverse transcriptase real time PCR); format: cell-based, Cryptosporidium parvum; conditions: inhibitor at time of infection and 1 hour after infection
[4] = target: SRC (Homo sapiens (Human), UniProt P12931); assay: Tyrosine kinase SRC counter-screen; format: biochemical
[5] = target: PfCDPK1 (Plasmodium falciparum (isolate 3D7), UniProt P62344); assay: biochemical; conditions: read-out: PfCDPK1 (% inhibition @ 3 uM)
[6] = target: PfCDPK4 (Plasmodium falciparum (isolate 3D7), UniProt Q8IBS5); assay: biochemical; conditions: read-out: PfCDPK4 (% inhibition @ 3 uM)
[7] = target: ABL (Homo sapiens (Human), UniProt P00519)
[8] = test system: human promyelocytic leukemia (HL-60); assay: Growth inhibition / toxicity in human cell line HL-60; conditions: HL60, 10 μM
[9] = test system: human lymphocyte (CRL8155); assay: Growth inhibition / toxicity in human cell line CRL8155; conditions: CRL8155, 10 μM
[10] = test system: P. berghei expressing PfCDPK4-2x-myc; set-up: species or system Plasmodium berghei; conditions: in vivo
[11] = test system: P. berghei; set-up: species or system Plasmodium berghei; conditions: in vivo
[12] = test system: P. falciparum; assay: P. falciparum NF54 gametocyte exflagellation with compound in blood; format: cell-based, Plasmodium falciparum
[13] = test system: C. parvum; assay: Immunosuppressed (SCID-beige) mouse C. parvum model, stool qRT-PCR; format: in vivo, Cryptosporidium parvum; conditions: oral gavage once a day, days 3-7 and 10-14; 29 and 150 50 mg/kg/day, Paromomycin 2 g/kg/day
Description: Shown are mean of the parasite numbers detected in 25 mg of stool from each mouse, by qRT-PCR.

[14] = test system: glioma derived (SF539); assay: Growth inhibition / toxicity in human cell line SF539

Structure (SMILES)	inhibition of CpCDPK1 (in words) [2]	inhibition at 3 µM [5]	inhibition at 3 µM [6]	also measured
CC(C)(C)n1nc(-c2ccc3ccccc3c2)c2c(N)ncnc21 [Compound 2, 1-tert-butyl-3-(naphthalen-2-yl)-1H-pyrazolo[3,4-d]pyrimidin-4-amine]	most potent inhibitor	–	–	inhibition of TgCDPK1 (in words) [1]: most potent inhibitor; C. parvum parasite levels / proliferation in HCT-8 cells [3]: most potent effect
Nc1ncnc2c1c(Cc1cccc3ccccc13)nn2CC1CCNCC1 [Compound 5h, 3-(naphthalen-1-ylmethyl)-1-(piperidin-4-ylmethyl)-1H-pyrazolo[3,4-d]pyrimidin-4-amine]	–	66%	95%	inhibition of SRC (in words) [4]: reduced potency; inhibition of ABL (in words) [7]: reduced potency
CC(C)n1nc(-c2ccc(Cl)c(Cl)c2)c2c(N)ncnc21 [Compound 7c, 3-(3,4-dichlorophenyl)-1-isopropyl-1H-pyrazolo[3,4-d]pyrimidin-4-amine]	potent against both enzymes	93%	97%	–
Cc1cc(-c2nn(C(C)C)c3ncnc(N)c23)ccc1F [Compound 7i, 3-(4-fluoro-3-methylphenyl)-1-isopropyl-1H-pyrazolo[3,4-d]pyrimidin-4-amine]	potent against both enzymes	79%	79%	–
COc1ccc(-c2nn(C(C)C)c3ncnc(N)c23)cc1OC [Compound 7k, 3-(3,4-dimethoxyphenyl)-1-isopropyl-1H-pyrazolo[3,4-d]pyrimidin-4-amine]	potent against both enzymes	93%	43%	–
COc1ccc(-c2nn(C(C)C)c3ncnc(N)c23)cc1C [Compound 7m, 1-isopropyl-3-(4-methoxy-3-methylphenyl)-1H-pyrazolo[3,4-d]pyrimidin-4-amine]	potent against both enzymes	77%	85%	–
CC(C)n1nc(-c2cnc3ccccc3c2)c2c(N)ncnc21 [Compound 7t, 1-isopropyl-3-(quinolin-3-yl)-1H-pyrazolo[3,4-d]pyrimidin-4-amine]	potent inhibitors of both enzymes	65%	83%	inhibition of TgCDPK1 (in words) [1]: potent inhibitors of both enzymes
Cc1cccc2[nH]c(-c3nn(C(C)C)c4ncnc(N)c34)cc12 [Compound 25, 1-isopropyl-3-(4-methyl-1H-indol-2-yl)-1H-pyrazolo[3,4-d]pyrimidin-4-amine]	–	–	92%	Cell Toxicity HL60, % at 10 μM [8]: 47% toxicity at; Cell Toxicity CRL8155, % at 10 μM [9]: 38% toxicity at
CC(C)n1nc(-c2cc3c(Cl)cccc3[nH]2)c2c(N)ncnc21 [Compound 26, 3-(4-chloro-1H-indol-2-yl)-1-isopropyl-1H-pyrazolo[3,4-d]pyrimidin-4-amine]	–	–	93%	Cell Toxicity HL60, % at 10 μM [8]: 45% toxicity at; Cell Toxicity CRL8155, % at 10 μM [9]: 38% toxicity at
CCOc1ccc2cc(-c3nn(CC4CCNCC4)c4ncnc(N)c34)ccc2c1 [Compound 29, 3-(6-ethoxynaphthalen-2-yl)-1-(piperidin-4-ylmethyl)-1H-pyrazolo[3,4-d]pyrimidin-4-amine]	–	97%	–	duration of complete suppression of male gametocyte differentiation to exflagellating units [10]: 14 h; exflagellation in blood samples from treated mice [10]: some exflagellation was observed; formation of oocysts in A. stephensi [11]: completely blocked; P. falciparum exflagellation ([12]; 1 and 3 μM): complete suppression; also recorded: suppressed completely; also recorded: prevented the exflagellation of microgametes; parasites in stool at the end of treatment [13]: not detected; rebound of parasite burden after treatment [13]: slowly
Nc1ncnc2c1c(-c1ccc3cc(OCc4ccccc4)ccc3c1)nn2CC1CCNCC1 [Compound 34, 3-(6-(benzyloxy)naphthalen-2-yl)-1-(piperidin-4-ylmethyl)-1H-pyrazolo[3,4-d]pyrimidin-4-amine]	–	–	97%	Cell Toxicity LD50 SF539 [14]: 6 µM
CCOc1ccc2cc(-c3nn(CC4CCN(C)CC4)c4ncnc(N)c34)ccc2c1 [Compound 150, 3-(6-ethoxynaphthalen-2-yl)-1-((1-methylpiperidin-4-yl)methyl)-1H-pyrazolo[3,4-d]pyrimidin-4-amine]	–	–	–	pEC50 ([12]; Plasmodium falciparum, read-out: Parasite Proliferation Assay EC50 P. falciparum Exflaggelation): 7.30; parasites in stool at the end of treatment [13]: not detected; rebound of parasite burden after treatment [13]: not
CC(C)(C)n1nc(-c2ccc3ccccc3c2)c2c(N)ncnc21 [NA-PP2, reference compound]	–	–	–	formation of oocysts in A. stephensi [11]: hundreds of oocysts per mosquito
NC[C@@H]1O[C@H](O[C@H]2[C@@H](O)[C@H](O[C@@H]3[C@@H](O)[C@H](N)C[C@H](N)[C@H]3O[C@H]3O[C@H](CO)[C@@H](O)[C@H](O)[C@H]3N)O[C@@H]2CO)[C@H](N)[C@@H](O)[C@@H]1O [Paromomycin, reference compound]	–	–	–	parasites in stool at the end of treatment [13]: not detected; rebound of parasite burden after treatment [13]: quickly rebounded
